Data as given in US12605374B2, “Methods for drug screening and compositions useful for the inhibition of cell proliferation and/or cell survival” (The Brigham and Women's Hospital, Inc., priority 2019, dated 2026).
“Also recorded” adds a separate entry of the source.

How the values were obtained:
Format in all cases: biochemical
[1] = tested on: Phospholipase D (Streptomyces chromofuscus); assay: In vitro Phospholipase D activity assay (Amplex Red kit); settings: listed as DA5
Phospholipase A2 = Phospholipase A2 (Apis mellifera, UniProt P00630)
Chain of Phospholipase A2 (P00630 34-167 limits assumed): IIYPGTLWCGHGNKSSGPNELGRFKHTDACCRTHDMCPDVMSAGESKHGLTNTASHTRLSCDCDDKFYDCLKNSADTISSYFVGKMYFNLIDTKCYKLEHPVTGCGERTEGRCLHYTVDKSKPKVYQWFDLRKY

[2] = biological target: T1, recombinant human Topoisomerase I (Homo sapiens, UniProt P11387); assay: Topoisomerase I and DNA binding gel electrophoresis assay
T1 construct: purchased TopoGEN, Inc. TG2005H
T1 sequence (P11387 1-765): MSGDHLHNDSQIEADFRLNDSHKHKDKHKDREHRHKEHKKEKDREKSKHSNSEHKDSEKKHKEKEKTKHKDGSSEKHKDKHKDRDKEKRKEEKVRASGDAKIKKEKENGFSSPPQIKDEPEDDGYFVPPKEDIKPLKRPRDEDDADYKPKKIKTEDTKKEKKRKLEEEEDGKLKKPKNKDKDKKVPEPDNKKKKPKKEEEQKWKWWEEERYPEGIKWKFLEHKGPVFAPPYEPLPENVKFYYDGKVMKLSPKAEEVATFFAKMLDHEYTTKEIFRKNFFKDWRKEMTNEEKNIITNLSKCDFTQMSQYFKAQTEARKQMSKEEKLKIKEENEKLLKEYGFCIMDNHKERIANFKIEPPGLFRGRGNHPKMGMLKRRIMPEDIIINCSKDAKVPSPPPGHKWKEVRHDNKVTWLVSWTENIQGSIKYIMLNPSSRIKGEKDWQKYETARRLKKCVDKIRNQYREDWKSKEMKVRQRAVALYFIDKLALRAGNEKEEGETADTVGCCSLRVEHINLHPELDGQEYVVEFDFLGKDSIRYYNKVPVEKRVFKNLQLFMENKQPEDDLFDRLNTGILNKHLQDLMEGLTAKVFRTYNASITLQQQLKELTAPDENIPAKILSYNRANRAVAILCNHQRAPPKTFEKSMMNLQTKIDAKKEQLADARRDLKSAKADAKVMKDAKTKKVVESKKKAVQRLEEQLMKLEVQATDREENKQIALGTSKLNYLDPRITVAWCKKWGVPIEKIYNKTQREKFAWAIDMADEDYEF
Description: FIG. 12: Topoisomerase I and DNA binding assay for DA5. The effect of DA5 on Topoisomerase-mediated DNA unwinding is measured through a gel electrophoresis assay (see Methods).
0.5 ug of pHOT-1 supercoiled DNA (TopoGEN, Inc. TG2030-2) was combined with 2× Topoisomerase I assay buffer (50 mM Tris-HCL (ph7.9), 1 mM EDTA, 1 mM DTT, 20% (v/v) glycerol, 50 mM NaCl), nuclease free water and either DMSO vehicle control, m-AMSA positive control (100-1000 uM; TopoGEN, Inc. […] TG2005H) was added to treatments corresponding to lanes 3-12 with 2 ul of dilution buffer (5 mM Tris-HCL (pH 7.9), 1 mM EDTA, 1 mM DTT, 50% (v/v) glycerol, 500 mM NaCl) added to control treatments lacking enzyme (lanes 2, 13 and 14). Reactions were mixed and incubated at 37° C. for 30 minutes. Reactions were terminated with the addition of 20 ul nuclease free water and 50 ul of 1-butanol (water-saturated) followed by vortex and centrifugation at 13,000 rpm for 1 minute. The lower aqueous phase was removed and added to 50 ul chloroform/isoamyl alcohol (24/1) and 50 ul of 2×STEB buffer (40% (w/v) sucrose, 100 mM Tris-HCL (pH 8), 1 mM EDTA, 0.5 mg/ml bromophenol blue) followed by mixing and centrifugation at 13,000 rpm for 1 minute. […] The gel was stained with ethidium bromide for 15 minutes followed by de-staining in distilled water for 10 minutes. Gels were exposed and images acquired using the iBrightFL1000 gel documentation system (Invitrogen).

For `CCC1(CC)CCN(C(=O)c2cc(COc3ccc4ncccc4c3)on2)C1` [ChemBridge ID 65692859, 6-([3-[(3,3-diethylpyrrolidin-1-yl)carbonyl]isoxazol-5-yl]methoxy)quinoline], which “activity of phospholipase D” value [1] is on record?
The value was “decrease in the activity; also recorded: inhibit phospholipase D activity”.

And the “activity of phospholipase A2” value (Phospholipase A2)?
Its value is “increased activity”.

What about the “DNA-binding / DNA intercalation / inhibition of Topoisomerase I” value ([2]; DNA intercalation analysis, listed as DA5) of the same compound?
Its value is “not due to DNA-binding or inhibition of Topoisomerase (TOPO) I; also recorded: not observed”.

What about the “effect on Topoisomerase-mediated DNA unwinding (gel electrophoresis)” value ([2]; concentrations up to 100 mM (so in the source), versus DMSO) of the same compound?
The value was “no more effect on DNA cleavage than DMSO”.
